Legend:
[1] = molecular target: T1, RXRα Homodimer (Homo sapiens, UniProt P19793); test: RXRα homodimer activation (transactivation) assay; assay type: cell-based
T1 construct: expressed in transfected cells; host or cells: mammalian cells (BHK21, CV1, etc)
T1 sequence (P19793 1-462): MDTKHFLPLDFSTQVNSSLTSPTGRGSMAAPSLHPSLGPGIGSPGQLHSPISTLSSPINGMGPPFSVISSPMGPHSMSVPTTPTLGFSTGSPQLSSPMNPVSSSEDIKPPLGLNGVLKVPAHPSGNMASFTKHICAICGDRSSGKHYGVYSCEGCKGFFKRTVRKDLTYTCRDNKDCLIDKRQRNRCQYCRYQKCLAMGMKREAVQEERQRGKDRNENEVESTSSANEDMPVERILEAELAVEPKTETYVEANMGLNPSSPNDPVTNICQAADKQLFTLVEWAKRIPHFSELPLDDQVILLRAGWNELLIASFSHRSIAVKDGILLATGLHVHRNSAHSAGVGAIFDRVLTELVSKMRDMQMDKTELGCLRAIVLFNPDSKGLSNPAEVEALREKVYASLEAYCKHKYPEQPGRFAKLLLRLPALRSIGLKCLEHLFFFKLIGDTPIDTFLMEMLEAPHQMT
How it was run: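 GAL4 DNA-binding domain–LBD chimera co-transfected into mammalian cells (e.g. BHK21, CV1) with a GAL4-site luciferase reporter. EC50 and partial/full agonism judged against a reference or natural ligand.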

[2] = molecular target: T2, PPARγ/RXRα Heterodimer (Homo sapiens, UniProt P19793); test: PPARγ/RXRα heterodimer activation (transactivation) assay; assay type: cell-based
T2 construct: co-transfected with plasmids expressing the full length RXR heteropartner receptor; expressed in transfected cells
T2 sequence (P19793 1-462): T1 sequence (P19793 1-462)
T2 sequence (P37231 1-505 partner): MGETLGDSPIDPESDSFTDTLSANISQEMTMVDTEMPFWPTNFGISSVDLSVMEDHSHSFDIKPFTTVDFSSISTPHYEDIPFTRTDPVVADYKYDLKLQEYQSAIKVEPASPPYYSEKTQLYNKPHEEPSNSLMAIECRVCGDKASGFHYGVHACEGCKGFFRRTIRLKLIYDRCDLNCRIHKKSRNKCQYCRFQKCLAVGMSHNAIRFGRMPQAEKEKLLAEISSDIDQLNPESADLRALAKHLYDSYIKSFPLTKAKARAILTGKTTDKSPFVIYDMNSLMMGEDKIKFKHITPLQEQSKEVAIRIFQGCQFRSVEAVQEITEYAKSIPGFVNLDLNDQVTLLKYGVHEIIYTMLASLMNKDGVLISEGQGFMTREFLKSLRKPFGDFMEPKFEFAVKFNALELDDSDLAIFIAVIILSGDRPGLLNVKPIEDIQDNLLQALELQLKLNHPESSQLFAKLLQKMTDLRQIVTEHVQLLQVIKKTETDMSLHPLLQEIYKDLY
How it was run: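 Cell-based luciferase transactivation: cells co-transfected with plasmids for full-length PPARγ, full-length RXR heteropartner and a luciferase reporter driven by multiple copies of the natural PPAR response element; ligand-dependent reporter activity measured.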

[3] = molecular target: T3, RXRγ (Homo sapiens, UniProt P48443); test: Retinoid activation assay, RXRγ (Schneider SL-3 cells, luciferase reporter); assay type: cell-based; details: read-out: Activation EC50 RXR γ
T3 sequence (P48443 1-463): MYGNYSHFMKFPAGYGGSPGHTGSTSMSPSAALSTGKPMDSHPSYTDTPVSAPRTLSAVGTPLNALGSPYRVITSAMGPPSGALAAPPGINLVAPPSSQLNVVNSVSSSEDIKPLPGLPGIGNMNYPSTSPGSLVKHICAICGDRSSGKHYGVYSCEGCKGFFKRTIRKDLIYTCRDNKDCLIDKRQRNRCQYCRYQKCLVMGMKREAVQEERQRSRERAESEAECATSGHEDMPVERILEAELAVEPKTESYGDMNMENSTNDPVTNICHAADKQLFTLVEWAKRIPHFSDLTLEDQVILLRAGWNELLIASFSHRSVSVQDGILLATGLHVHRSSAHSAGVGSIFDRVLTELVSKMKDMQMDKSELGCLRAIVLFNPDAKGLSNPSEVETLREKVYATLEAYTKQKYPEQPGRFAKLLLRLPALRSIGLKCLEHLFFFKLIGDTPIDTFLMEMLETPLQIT
How it was run: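 Drosophila Schneider SL-3 cells transiently transfected (Ca-phosphate, 3-4 h before assay) with full-length RXR cDNA plus luciferase reporter driven by three rat CRBP RXR response elements on an alcohol dehydrogenase promoter. Supernatant luciferase read after incubation; EC50 is concentration giving half-maximal activation.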

[4] = molecular target: T4, RARγ (Homo sapiens, UniProt P13631); test: Retinoid binding assay, RARγ; details: read-out: Binding Affinity IC50 RAR γ
T4 construct: The DEF domains of RAR's and the full length RXR's, expressed in E.coli; made in house; host or cells: E. coli
T4 sequence (P13631 185-419 limits assumed): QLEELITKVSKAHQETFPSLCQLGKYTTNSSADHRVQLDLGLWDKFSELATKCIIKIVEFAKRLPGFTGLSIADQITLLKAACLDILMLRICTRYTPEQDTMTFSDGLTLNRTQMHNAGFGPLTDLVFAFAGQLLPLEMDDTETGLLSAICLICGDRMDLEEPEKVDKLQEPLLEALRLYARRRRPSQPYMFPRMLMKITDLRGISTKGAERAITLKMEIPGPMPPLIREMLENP
From the text: (§1) The DEF domains of RAR's and the full length RXR's, expressed in E.coli, are used to measure competitive retinoid binding. […] 9-cis retinoic acid (for RXR's), respectively. […] Separation of bound from free radioactivity is achieved by charcoal/dextran (RAR's) or by desalting columns (RXR's). […] Retinoid Activation Assays

[5] = molecular target: T3, RXRγ; test: Retinoid binding assay, RXRγ; design: made in house; host or cells: E. coli; details: [3H] 9-cis retinoic acid 20 nM; read-out: Binding Affinity IC50 RXR γ
From the text: as §1

## CCCCOc1c(\C(C)=C/C=C/C(C)=C/C(=O)O)cc(C(C)(C)C)cc1C(C)(C)C [Compound 15, (2E,4E,6Z)-7-[2-butoxy-3,5-bis(1,1-dimethylethyl)phenyl]-3-methyl-2,4,6-octatrienoic acid]
[1]
  EC50: > 10 µM
[2]
  EC50: > 10 µM
[3]
  EC50: ≥ 10 µM
[4]
  IC50: 2.7 µM
[5]
  IC50: 0.047 µM
